The assay in a line: DPPH free radical scavenging activity test. The format is biochemical. Conditions: for DPPH free radical scavenge activity (%) (mean ± standard deviation): 0.2 mM DPPH 1:1, 30 min. Here is the method:
To evaluate the DPPH free radical scavenging activity of the biodegradable metal of the present invention, samples were provided to the Korea Testing & Research Institute and the test thereof was performed in a manner described below by the Korea Testing & Research Institute at the request of the inventors.
a. Test substance • Magnesium patch with a purity of 95% or more (See FIG. 1 in which the patch is provided with microneedles that are not bent). • The sample used for the test is a sheet shape (dimensions: 2.6 mm×2.4 mm, thickness 0.1 t) made of Mg with a purity of 95% or more and including unavoidable impurities generated during manufacturing thereof.
b. Positive control • L-ascorbic acid: Sigma-Aldrich Corporation, Lot No. SLBR2586V
c. Etc. • 2,2-Diphenyl-1-picrylhydrazyl (DPPH): Sigma-Aldrich Corporation, Lot No. STBH0044 • Methanol: JINSEI, Lot No. 2016G2012
a. Preparation of test substance: The provided test substance was used without conversion of purity. Methanol was used to adjust the concentration.
After weighing L-ascorbic acid, it was prepared to have a predetermined concentration using methanol.
DPPH was prepared to have a concentration of 0.2 mM using methanol.
In a 96-well plate, each of the preparations (test substance and positive control substance) having different concentrations was mixed with a combination of 0.2 mM DPPH and methanol in a mixing ratio of 1:1.
After reacting at room temperature for 30 minutes in a light-shielding state, centrifugation was performed to obtain a supernatant, and absorbance was measured at a wavelength of 517 nm.
The free radical scavenger activity (%) of DPPH was calculated using Equation 1 below.
DPPH radical scavenging activity(%)=1−(A/B)×100 <Equation 1>
In Equation 1, A is the absorbance of the test substance, and B is the absorbance of the blank sample.
The result of each test was measured three times to obtain the mean value and standard deviation, and statistical analysis was performed using the SPSS statistical program (Ver. 19.0). First, after performing Levene's test, a one-way ANOVA test was performed. When significance was confirmed among the test groups, a post-hoc test was performed depending on the presence or absence of homogeneity of variances (when the variances are homogeneous, Duncan's multiple test was performed whereas when the variances were heterogeneous, Dunnett's T3 was performed).

Molecules are shown by their SMILES.

`O=C1O[C@H]([C@@H](O)CO)C(O)=C1O` [L-ascorbic acid]: the “DPPH free radical scavenge activity (%) (mean ± standard deviation)” value is 20.96% (concentration 0.0005%), 40.38% (concentration 0.001%), 65.57% (concentration 0.0015%) and 83.24% (concentration 0.002%). In addition, the “IC50 (concentration at which 50% activity is exhibited), DPPH scavenging” value (methanol solution) worked out at 0.0012%.

The values are drawn from patent US20220168193A1, “FLEXIBLE METAL PATCH HAVING ANTIOXIDANT ACTIVITY AND BRIGHTENING EFFECT AND METHOD FOR USING SAME” (LABNPEOPLE CO., LTD., priority 2019, published 2022).
